Columns and labels:
[1] = test system: Lgr5+ cells (cochlear stem cells); assay: Lgr5+ assay: expansion of Lgr5-positive cochlear cells in 3D culture; assay type: cell-based, mouse
Text: “Stem Cell Proliferation Assay” as used herein is an assay to determine the capacity for agent(s) to induce the creation of stem cells from a starting cell population. In an exemplary Stem Cell Proliferation Assay, the number of cells for an initial cell population is harvested from a Lgr5-GFP mouse such as a B6.129P2-Lgr5tm1(cre/ERT2)Cle/J mouse (also known as Lgr5-EGFP-IRES-creERT2 or Lgr5-GFP mouse, Jackson Lab Stock No: 008875) between the age of 3 to 7 days, by isolating the organ of Corti sensory epithelium and dissociating the epithelium into single cells. Approximately 5000 cells are entrapped in 40 μl of culture substrate (for example, Matrigel (Corning, Growth Factor Reduced)) and placed at the center of wells in a 24-well plate with 500 μl of an appropriate culture media, growth factors and agent being tested. Appropriate culture media and growth factors include Advanced DMEM/F12 with media supplements (1×N2, 1×B27, 2 mM Glutamax, 10 mM HEPES, 1 mM N-acetylcysteine, and 100 U/ml penicillin/100 μg/ml streptomycin) and growth factors (50 ng/ml EGF, 50 ng/ml bFGF, and 50 ng/ml IGF-1) as well as the agent(s) being assessed are added into each well. Cells are cultured for 10 days in a standard cell culture incubator at 37° C. and 5% CO2, with media change every 2 days. The number of Lgr5^+ cells is quantified by counting the number of cells identified as Lgr5+ in an in vitro Lgr5 activity assay (i.e., an assay mearing in vitro Lgr5 activity). The fraction of cells that are Lgr5^+ is quantified by dividing the number of cells identified as Lgr5^+ in a cell population by the total number of cells present in the cell population. The average Lgr5^+ activity of a population is quantified by measuring the average mRNA expression level of Lgr5 of the population normalized using suitable and unregulated references or housekeeping genes (e.g., Hprt). The number of hair cells in a population may be measured by staining with hair cell marker (e.g., MyosinVIIa), or using an endogenous reporter of hair cell genes (e.g., Pou4f3-GFP, Atoh1-nGFP) and analyzing using flow cytometry. The fraction of cells that are hair cells is quantified by dividing the number of cells identified as hair cells in a cell population by the total number of cells present in the cell population. Lgr5 activity can be measured by qPCR.
The compounds of the present disclosure were used in Lgr5-EGFP-IRES-Cre-ER mice (Barker et al., 2007) to analyze the effects of small molecules on cochlear stem cell expansion.
Isolation of stem cells from the inner ear: All animal studies were conducted under an approved institutional protocol according to National Institutes of Health guidelines. For experiments with neonatal mice (postnatal days 1-3), the cochleae were dissected in Hank's Balanced Salt Solution (HBSS) and the organs of Corti were separated from the stria vascularis and the modiolus. The organs of Corti were then treated with Cell Recovery Solution (Corning) for 1 hour to separate cochlear epithelium from the underlying mesenchyme. Epithelia were then collected and treated with TrypLE (Life Technologies) for 15-20 minutes at 37° C. Single cells obtained by mechanical trituration were filtered (40 μm) and suspended in Matrigel® (Corning) for 3D culture.
Cells were cultured in a 1:1 mixture of DMEM and F12, supplemented with Glutamax (GIBCO), N2, B27 (Invitrogen), EGF (50 ng/ml; Chemicon), bFGF (50 ng/ml; Chemicon), IGF1 (50 ng/ml; Chemicon) and the composition provided herein. Medium was changed every other day.
Lgr5-positive cells were quantified after 10 days (D10) in culture in multiple conditions. Cell colonies were dissociated into single cells using TrypLE (Gibco). The cells were then stained with propidium iodide (P1) and were analyzed using a flow cytometer for Lgr5-GFP expression. The number of GFP-positive cells and the percentage of GFP-positive cells were quantified. […]

GSK3α = GSK3α (Homo sapiens, UniProt P49840); assay: GSK3α in vitro enzymatic assay (Kinase-Glo Max luminescence); assay type: biochemical; conditions: recombinant human GSK3, 10 μM ATP; approximate values; read-out: Potency GSK3alpha
Description: (§1) Enzymatic activities of compounds of the present disclosure can be tested using recombinant human GSK3 in an in vitro enzymatic assay to determine the ability of the compounds of the present disclosure to inhibit GSK3α and GSK3β.
(§2) The assay was performed using Kinase-Glo® Max luminescence kinase assay kit (Promega). The assay measures kinase activity by quantitating the amount of ATP remaining in solution following a kinase reaction. The luminescent signal from the assay is correlated with the amount of ATP present and is inversely correlated with the amount of kinase activity.
(§3) To perform the assay, compounds were diluted in 10% DMSO and 5 μl of the dilution was added to a 50 μl reaction so that the final concentration of DMSO was 1% in all of reactions. The enzymatic reactions were conducted at 30° C. for 40 minutes. The 50 μl reaction mixture contained 40 mM Tris, pH 7.4, 10 mM MgCl2, 0.1 mg/ml BSA, 2 mM DTT, 0.1 mg/ml GSK tide substrate, 10 uM ATP and GSK3. After the enzymatic reaction, 50 μl of Kinase-Glo Max Luminescence kinase assay solution (Promega) was added to each reaction and plates were incubated for 15 minutes at room temperature. Luminescence signal was measured using a BioTek Synergy 2 microplate reader.
(§4) Kinase activity assays were performed in duplicate at each concentration. The luminescence data were analyzed using the computer software, GraphPad Prism. The difference between luminescence intensities in the absence of Kinase (Lut) and in the presence of Kinase (Luc) was defined as 100% activity (Lut-Luc). Using luminescence signal (Lu) in the presence of the compound, percent activity was calculated as: % activity={(Lut-Lu)/(Lut-Luc)}×100%, where Lu=the luminescence intensity in the presence of the compound (all percent activities below zero were shown zero in the table).
(§5) The values of percent activity versus a series of compound concentrations were then plotted using non-linear regression analysis of Sigmoidal dose-response curve generated with the equation Y=B+(T−B)/1+10((LogEC50−X)×Hill Slope), where Y=percent activity, B=minimum percent activity, T=maximum percent activity, X=logarithm of compound and Hill Slope=slope factor or Hill coefficient. The ICs, value was determined by the concentration causing a half-maximal percent activity.

LSD2 = target: T1, LSD2 (Homo sapiens, UniProt Q8NB78); assay: LSD2 A-screen (AlphaScreen) demethylase enzymatic assay; assay type: biochemical; conditions: 50 μM compound, approximate values; for inhibition at 50 µM: read-out: Potency LSD-2 % Inhibition at 50 μM
T1 sequence (Q8NB78 1-822): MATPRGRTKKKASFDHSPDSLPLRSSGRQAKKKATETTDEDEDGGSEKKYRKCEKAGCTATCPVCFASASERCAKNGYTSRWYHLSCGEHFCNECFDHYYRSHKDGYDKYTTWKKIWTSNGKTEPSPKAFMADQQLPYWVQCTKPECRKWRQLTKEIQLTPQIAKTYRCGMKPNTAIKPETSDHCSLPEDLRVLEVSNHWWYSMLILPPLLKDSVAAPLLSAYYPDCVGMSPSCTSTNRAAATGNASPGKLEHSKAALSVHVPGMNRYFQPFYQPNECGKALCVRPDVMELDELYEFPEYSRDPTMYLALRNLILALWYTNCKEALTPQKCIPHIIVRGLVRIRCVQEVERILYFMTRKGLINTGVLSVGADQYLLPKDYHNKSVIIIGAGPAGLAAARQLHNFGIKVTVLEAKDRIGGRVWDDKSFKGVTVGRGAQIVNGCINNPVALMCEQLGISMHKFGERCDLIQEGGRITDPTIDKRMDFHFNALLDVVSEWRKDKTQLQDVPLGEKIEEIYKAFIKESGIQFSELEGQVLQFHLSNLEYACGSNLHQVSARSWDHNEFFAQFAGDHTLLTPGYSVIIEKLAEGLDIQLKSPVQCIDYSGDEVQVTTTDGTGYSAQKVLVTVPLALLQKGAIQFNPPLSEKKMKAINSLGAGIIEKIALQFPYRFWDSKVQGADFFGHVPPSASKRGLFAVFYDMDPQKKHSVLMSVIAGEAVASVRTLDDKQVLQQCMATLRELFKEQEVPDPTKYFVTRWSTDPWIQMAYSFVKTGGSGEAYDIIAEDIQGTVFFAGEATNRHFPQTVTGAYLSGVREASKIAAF
Description: (§6) Enzymatic activities of compounds of the present disclosure can be tested with recombinant human LSD using an in vitro enzymatic assay to determine the ability of the compounds of the present disclosure to inhibit LSD-1 and LSD2. Examples of the assay are provided below.
(§7) All of the enzymatic reactions were conducted in duplicate at room temperature for 60 minutes in a 10 μL mixture containing assay buffer, histone H3 peptide substrate, demthylase enzyme, and the test compound. These 10 μL reactions were carried out in wells of a 384-well Optiplate (PerkinElmer). The dilution of the compounds was first performed in 100% DMSO with the highest concentration at 5 mM Each intermediate compound dilution (in 100% DMSO) was then directly diluted 30× fold into assay buffer for 3.3× concentration (DMSO). […] From this intermediate step, 3 μL of compound was added to 4 μL of demethylase enzyme dilution was incubated for 30 minutes at room temperature. After this incubation, 3 μL of peptide substrate was added. The final DMSO concentration was 1%. After enzymatic reactions, 5 μL of anti-Mouse or anti-Rabbit Acceptor beads (PerkinElmer, diluted 1:500 with 1× detection buffer) and […] (BPS, diluted 1:800 with 1× detection buffer) were added to the reaction mix. After brief shaking, the plate was incubated for 30 minutes. Finally, 10 μL of AlphaScreen™ Streptavidin-conjugated donor beads (Perkin, diluted 1:125 with 1× detection buffer) were added. After 30 minutes, the samples were measured in an AlphaScreen microplate reader (EnSpire Alpha 2390 Multilabel Reader, Perkin Elmer).
(§8) Enzyme activity assays were performed in duplicates at each concentration. The A-screen intensity data were analyzed and compared. In the absence of the compound, the intensity in each data set was defined as 100% (Ce) activity. In the absence of enzyme, the intensity in each data set was defined as 0% (C0) activity. The percent activity in the presence of each compound was calculated according to the following equation: % activity=(C−C0)/(Ce−C0), where C=the intensity in the presence of the compound.
as §5, with “value” for “values”, “was” for “were”, “IC50” for “ICs,”

LSD-1 = LSD-1 (Homo sapiens, UniProt O60341); assay: LSD-1 A-screen (AlphaScreen) demethylase enzymatic assay; assay type: biochemical; conditions: approximate values; for inhibition at 50 µM: read-out: Potency LSD-1 % Inhibition at 50 μM
Description: as §6, §7, §8
as §5, with “value” for “values”, “was” for “were”, “IC50” for “ICs,”

GSK3β = GSK3β (Homo sapiens, UniProt P49841); assay: GSK3β in vitro enzymatic assay (Kinase-Glo Max luminescence); assay type: biochemical; conditions: recombinant human GSK3, 10 μM ATP; approximate values; read-out: Potency GSK3beta
Description: as §1, §2, §3, §4, §5

[2] = in a background of growth factors, compared to CHIR-99021 and its combinations (figures)

GSK3β, sequence (P49841 whole entry): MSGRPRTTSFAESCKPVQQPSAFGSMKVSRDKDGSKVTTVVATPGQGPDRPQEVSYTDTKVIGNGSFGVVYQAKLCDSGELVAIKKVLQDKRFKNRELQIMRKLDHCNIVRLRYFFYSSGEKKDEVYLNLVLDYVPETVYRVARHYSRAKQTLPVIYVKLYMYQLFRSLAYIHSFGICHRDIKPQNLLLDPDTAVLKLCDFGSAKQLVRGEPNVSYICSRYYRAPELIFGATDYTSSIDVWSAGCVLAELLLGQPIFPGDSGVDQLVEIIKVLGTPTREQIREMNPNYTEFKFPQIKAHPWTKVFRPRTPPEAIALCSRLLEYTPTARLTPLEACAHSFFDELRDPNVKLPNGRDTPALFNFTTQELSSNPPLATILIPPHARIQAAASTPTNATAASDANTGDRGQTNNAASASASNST
GSK3α, sequence (P49840 whole entry): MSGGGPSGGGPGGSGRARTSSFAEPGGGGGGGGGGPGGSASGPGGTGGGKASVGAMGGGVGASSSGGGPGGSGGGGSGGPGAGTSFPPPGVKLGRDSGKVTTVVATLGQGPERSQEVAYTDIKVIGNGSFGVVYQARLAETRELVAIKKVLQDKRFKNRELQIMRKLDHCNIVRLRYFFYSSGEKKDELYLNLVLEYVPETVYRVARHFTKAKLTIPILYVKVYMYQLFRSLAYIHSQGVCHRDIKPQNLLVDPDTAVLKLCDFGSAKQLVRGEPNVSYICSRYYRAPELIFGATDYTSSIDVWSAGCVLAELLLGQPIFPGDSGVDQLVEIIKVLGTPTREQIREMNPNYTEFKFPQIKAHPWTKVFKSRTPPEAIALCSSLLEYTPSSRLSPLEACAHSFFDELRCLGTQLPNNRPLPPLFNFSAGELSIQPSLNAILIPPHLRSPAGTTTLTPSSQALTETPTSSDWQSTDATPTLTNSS

| IC50 (GSK3α) | inhibition at 50 µM (LSD2) | IC50 (LSD-1; read-out: Potency LSD-1 IC50) | IC50 (GSK3β) | Potency LSD-2 % Inhibition at 50 μM (LSD2; 50 µM) | Potency LSD-1 % Inhibition at 50 μM (LSD-1; 50 μM compound, 50 µM) | inhibition at 50 µM (LSD-1; 50 μM compound) | Compound | Potency (Lgr5+ activity) ([1]; effective concentration for Lgr5+ expansion, 10 days culture with EGF, bFGF, IGF1, approximate values) | Lgr5 GFP+ progenitor cell proliferation (Lgr5 positive cell count) [1, 2] | enrichment of Lgr5 GFP+ cochlear progenitor cells (percent of Lgr5 positive cells) [1, 2] |
| --- | --- | --- | --- | --- | --- | --- | --- | --- | --- | --- |
| – | – | – | – | – | – | – | CCn1cc(C(=O)O)c(=O)c2c(N)c(F)c(N[C@@H]3C[C@H]3c3ccccc3)cc21 (relative stereo) [Compound I-20] | 1.1 µM | generate Lgr5 GFP+ progenitor cell proliferation | generates enrichment of Lgr5 GFP+ cochlear progenitor cells |
| 0.99 µM | 8% | 8.5 µM | 1.6 µM | – | – | – | Nc1c(F)c(NCCN[C@@H]2C[C@H]2c2ccccc2)cc2c1c(=O)c(C(=O)O)cn2CCO (relative stereo) [Compound I-90] | – | – | – |
| > 10 µM | – | – | > 10 µM | 6% | 26% @ 50 μM | – | CCn1cc(C(=O)O)c(=O)c2c(N)c(F)c(N[C@@H]3C[C@H]3c3ccccc3)cc21 (single isomer, unassigned) [Compound I-63] | – | – | – |
| > 10 µM | 3% | – | > 10 µM | – | – | 0% | CCn1cc(C(=O)O)c(=O)c2c(N)c(F)c(OCCc3ccccc3)cc21 [Compound I-52] | – | – | – |
| > 10 µM | – | – | > 10 µM | – | – | – | CCn1cc(C(=O)O)c(=O)c2c(F)cc(NCc3ccccc3)cc21 [Compound I-55] | – | – | – |
| > 10 µM | 28% | – | > 10 µM | – | – | 56% | CCn1cc(C(=O)O)c(=O)c2c(N)cc(NCCc3ccccc3)cc21 [Compound I-56] | – | – | – |
| > 10 µM | 7% | – | > 10 µM | – | – | 77% | CCn1cc(C(=O)O)c(=O)c2c(N)cc(NC3CCCCC3)cc21 [Compound I-58] | – | – | – |
| > 10 µM | 2% | – | > 10 µM | – | – | 72% | CCn1cc(C(=O)O)c(=O)c2c(N)cc(NC3CCCCC3)c(F)c21 [Compound I-64] | – | – | – |

From patent US20230058189A1, “QUINOLIN-4-ONE AND 4(1H)-CINNOLINONE COMPOUNDS AND METHODS OF USING SAME” (Frequency Therapeutics, Inc., priority 2019, published 2023)
